From paper PMC2892103 (Journal of molecular biology, 2010)

Target: T1, E. coli TrmD (Escherichia coli, UniProt P0A873)
T1 sequence (P0A873 1-255): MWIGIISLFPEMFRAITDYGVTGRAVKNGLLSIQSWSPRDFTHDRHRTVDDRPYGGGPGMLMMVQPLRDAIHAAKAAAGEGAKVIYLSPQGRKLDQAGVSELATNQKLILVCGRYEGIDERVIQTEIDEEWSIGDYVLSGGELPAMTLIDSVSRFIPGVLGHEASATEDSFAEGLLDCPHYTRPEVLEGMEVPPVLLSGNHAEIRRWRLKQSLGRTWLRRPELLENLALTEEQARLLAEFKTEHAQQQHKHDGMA
Assay: intrinsic tryptophan fluorescence quenching, quadratic fit
Type: binding

Kd | Structure (SMILES)
330 ± 40 nM | Nc1ncnc2c1ncn2[C@@H]1O[C@H](CSCC[C@H](N)C(=O)O)[C@@H](O)[C@H]1O [AdoHcy]
1100 ± 200 nM | C[S+](CC[C@H](N)C(=O)O)C[C@H]1O[C@@H](n2cnc3c(N)ncnc32)[C@H](O)[C@@H]1O (some centres unmarked) [AdoMet]
